We go through 17 molecules from patent US5756813A, “Hindered aromatic ester compounds useful as anti-viral agents” (Uniroyal Chemical Ltd/Uniroyal Chemical Ltee, priority 1996, dated 1998).

Molecules are shown by their SMILES. Several values for one entry are separate records, joined by “and”; a condition that tells them apart may be missing. Identical values can stand only once. Like-named read-outs stand apart in the source and are kept apart here. Some results are limits rather than exact numbers.

The subject of assay [1] is T4 lymphocytes (CEM cell line). As to the kind of experiment: Toxicity to uninfected T4 lymphocytes (CEM cell line): 50% inhibition of cell growth (second blank). In kind it is cell-based, human. As to conditions: uninfected CEM cells, no HIV-1, cytotoxicity, replicate tests, read-out: IC50 (concentration that results in 50% inhibition of cell growth). The method, then: (§1) 1) The test compound was dissolved in dimethyl sulfoxide and diluted 1:100 in cell culture medium before serial half-log10 dilutions were prepared. T4 lymphocytes (CEM cell line) were then added to the cell culture medium, and, finally, after a brief interval, HIV-1 was added, resulting in a 1:200 final dilution of the test compound. Uninfected cells in the cell culture medium containing the test compound (i.e., minus HIV-1) were used as a toxicity control, and infected cells in the cell culture medium without the test compound and uninfected cells in the cell culture medium without the test compound, were used as basic controls.
(§2) 2) The cultures were incubated at 37° C. in a 5% carbon dioxide atmosphere for 6 days.
(§3) 3) The tetrazolium salt, XTT, was added to all wells, and the cultures were then incubated to allow formazan color development by viable cells.
(§4) 4) Individual wells were analyzed spectrophotometrically to quantitate formazan production, and were also viewed microscopically for detection of viable cells and confirmation of protective activity.
(§5) 5) Virus-infected cells exposed to the test compound were compared with noninfected cells exposed to the test compound, and with other appropriate controls (infected cells not exposed to the test compound and noninfected cells not exposed to the test compound, wells containing only the test compound in the cell culture medium, and so on) on the same plate. These are the first and second blanks described below.
In the second blank, the T4 lymphocytes in cell culture medium and the test compound (with no HIV-1) were incubated together to measure the toxicity of the drug to the cellline. The viability of the cells was measured as a function of concentration of the compound, after incubation for seven days. The concentration of the test compound that results in 50% inhibition of cell growth is defined as its IC50.
(§6) The compounds were tested to determine their reduction of HIV cytopathic effect on the human cell line CEM. Tests were done by innoculating these cell lines in-well (IW), i.e., the test compound and CEM cells were mixed on a test plate and the virus was added a short time later.

A further assay relates to HIV-1. As to the kind of experiment: NCI in vitro anti-HIV screen: reduction of HIV-1 cytopathic effect in T4 lymphocytes (CEM cell line), XTT/formazan readout. It counts as cell-based, HIV-1 (in human cell line CEM). As to conditions: replicate tests; for TI50 (therapeutic index, IC50/EC50): calculated as IC50/EC50, CEM cells. The method, then:
Representative compounds of this invention were tested for anti-viral activity by subjecting them to standard National Cancer Institute ("NCI") in vitro screening procedures. Two blanks were run with each test. The NCI test for agents active against HIV is designed to detect agents acting at any stage of the virus reproduction cycle.
In the test assay, small amounts of HIV are added to T4 lymphocyte cells. The assay measures the amount of T4 lymphocytes "killed" by HIV cytolysis. Since a complete cycle of viral reproduction is necessary to "kill" the T4 lymphocyte cells, agents that interfere with viral reproduction will protect the cells from cytolysis.
The NCI system is automated in several features to accomodate large numbers of candidate agents and is generally designed to detect anti-HIV activity. […] All tests are compared with at least one positive (AZT-treated) control done at the same time under identical conditions.
as §1, §2, §3, §4, §5
6) Data were reviewed in comparison with other tests done at the same time and a determination concerning activity was made. In the first blank, HIV and T4 lymphocytes in cell culture medium, were incubated together to measure the infectivity of the virus. The viability of the cells was measured after holding for six or seven days. In an "effective" test, most cells were infected before the holding period was complete.
Finally, the protective effects of the test compounds were measured. Each cell culture and test compound were incubated with the virus and the viability of the cells was measured as a function of compound concentration after incubation for six or seven days. The concentration of the test compound that results in 50% "control," i.e., a 50% reduction of the viral cytopathic effect, is defined as its EC50. The therapeutic index TI50 was calculated as IC50 /EC50.
Concentrations of test compounds required for between 20 and 50% reduction of the viral cytopathic effect can also be determined. Such compounds are classified as moderately active.
as §6

Where [2] appears, read: HIV-1 infected CEM cells, in-well (IW) inoculation, six or seven days, read-out: EC50 (concentration that results in 50% reduction of the viral cytopathic effect).
Where [3] appears, read: Human immunodeficiency virus 1, CCRF-CEM, 168 h, HIV-1 infected CEM cells, in-well (IW) inoculation, six or seven days, read-out: EC50 (concentration that results in 50% reduction of the viral cytopathic effect).

Take `CC1(OC(=O)c2cc(NC(=O)c3ccccc3)ccc2Cl)CCCC1` [Compound 1]: the IC50 in assay [1] (Homo sapiens, CCRF-CEM) was 41.8 µM; in assay [1], 49.5 µM and 32.7 µM and 32 µM. Further, the EC50 with HIV-1 (setting [2]) is 11.5 µM and 15.2 µM and 17.6 µM; with HIV-1 (setting [3]), 17.3 µM. In addition, the “TI50 (therapeutic index, IC50/EC50)” value with HIV-1 is 2 and 4.
Turning to `CC1(OC(=O)c2cc(NC(=S)c3ccccc3)ccc2Cl)CCCC1` [Compound 2], the IC50 in assay [1] (Homo sapiens, CCRF-CEM) is 29.4 µM; in assay [1], 28.8 µM and 31 µM and 32 µM. Further, the EC50 in the assay on HIV-1 (setting [2]) was 0.216 µM and 0.232 µM and 0.398 µM and 0.598 µM. For the same molecule, the “TI50 (therapeutic index, IC50/EC50)” value in the assay on HIV-1 was 137 and 124 and 78 and 54.
With `CC1CCCC1OC(=O)c1cc(NC(=S)c2ccccc2)ccc1Cl` (stereo not drawn) [Compound 3], the IC50 in assay [1] (Homo sapiens, CCRF-CEM) was 14.1 µM; in assay [1], 12.2 µM and 13.8 µM. Also, the EC50 was 0.0867 µM and 0.0783 µM and 0.101 µM with HIV-1 (setting [2]); 0.0967 µM with HIV-1 (setting [3]). For the same molecule, the “TI50 (therapeutic index, IC50/EC50)” value with HIV-1 was 146 and 141 and 180 and 136.
In the case of `CC1CCCC(C)C1OC(=O)c1cc(NC(=S)c2ccccc2)ccc1Cl` (stereo not drawn) [Compound 4], the IC50 in assay [1] (Homo sapiens, CCRF-CEM) is more than 13 µM. For the same molecule, the EC50 with HIV-1 (setting [2]) was 0.94 µM and 2.1 µM and 0.95 µM and 0.37 µM. For the same molecule, the “TI50 (therapeutic index, IC50/EC50)” value in the assay with HIV-1 was > 14 and > 6 and > 35.
`CC1CCCCC1OC(=O)c1cc(NC(=S)c2ccccc2)ccc1Cl` (stereo not drawn) [Compound 5]: the IC50 was 16 µM in assay [1] (Homo sapiens, CCRF-CEM); 14.1 µM and 13.6 µM and 13.4 µM in assay [1]. For the same molecule, the EC50 with HIV-1 (setting [2]) is 0.175 µM and 0.199 µM and 0.0791 µM and 0.126 µM. In the assay with HIV-1, the “TI50 (therapeutic index, IC50/EC50)” value is 92 and 71 and 172 and 107.
Consider `CC1=C(C(=O)Nc2ccc(Cl)c(C(=O)OC3CCCCC3C)c2)SCCO1` (stereo not drawn) [Compound 6], for which the IC50 was more than 24 µM in assay [1] (Homo sapiens, CCRF-CEM); 14 µM and 20 µM in assay [1]. In the assay on HIV-1, the “TI50 (therapeutic index, IC50/EC50)” value is > 1 and > 18 and 19 and 18.
On to `CC1CCC(OC(=O)c2cc(NC(=O)c3ccccc3)ccc2Cl)C1` (stereo not drawn) [Compound 7], for which the IC50 in assay [1] (Homo sapiens, CCRF-CEM) was 19 µM; in assay [1], 11 µM and 17 µM and 14 µM. The EC50 is 5.8 µM and 3.6 µM and 6.1 µM with HIV-1 (setting [2]); 5.7 µM in the assay on HIV-1 (setting [3]). The “TI50 (therapeutic index, IC50/EC50)” value in the assay with HIV-1 was 3 and 2 and 5.
For the molecule `CC1CCC(OC(=O)c2cc(NC(=S)c3ccccc3)ccc2Cl)C1` (stereo not drawn) [Compound 8], the IC50 in assay [1] (Homo sapiens, CCRF-CEM) was 14.6 µM; in assay [1], 13.5 µM and 14.8 µM and 13.1 µM. Also, the EC50 is 0.195 µM and 0.184 µM and 0.181 µM in the assay with HIV-1 (setting [2]); 0.213 µM in the assay with HIV-1 (setting [3]). Further, the “TI50 (therapeutic index, IC50/EC50)” value with HIV-1 is 68 and 69 and 80 and 72.
`CC1CCCCC1OC(=O)c1cc(NC(=O)c2ccccc2)ccc1Cl` (stereo not drawn) [Compound 9, 2-methylcyclohexyl 2-chloro-5-(benzoylamino)benzoate]: the IC50 in assay [1] (Homo sapiens, CCRF-CEM) is 14.2 µM; in assay [1], 12.6 µM and 15.3 µM and 14.5 µM. Further, the EC50 was 4.65 µM with HIV-1 (Human immunodeficiency virus 1, CCRF-CEM, 168 h, read-out: EC50 (concentration that results in 50% reduction of the viral cytopathic effect), HIV-1 infected CEM cells, in-well (IW) inoculation, six or seven days); 4.47 µM and 2.37 µM with HIV-1 (read-out: EC50 (concentration that results in 50% reduction of the viral cytopathic effect), HIV-1 infected CEM cells, in-well (IW) inoculation, six or seven days). The “TI50 (therapeutic index, IC50/EC50)” value with HIV-1 was 31 and 28 and 65.
Consider `Cc1ccccc1C(=O)Nc1ccc(Cl)c(C(=O)OC2CCCCC2C)c1` (stereo not drawn) [Compound 10], for which the IC50 in assay [1] (Homo sapiens, CCRF-CEM) was 19.7 µM; in assay [1], 16.9 µM and 17.1 µM and 16.6 µM. The EC50 with HIV-1 (setting [2]) was 2.39 µM and 1.75 µM and 1.3 µM and 1.13 µM. The “TI50 (therapeutic index, IC50/EC50)” value in the assay with HIV-1 is 8 and 10 and 13 and 15.
Regarding `Cc1ccccc1C(=S)Nc1ccc(Cl)c(C(=O)OC2CCCCC2C)c1` (stereo not drawn) [Compound 11], the IC50 in assay [1] (Homo sapiens, CCRF-CEM) was more than 9.4 µM. The EC50 was 5.4 µM and 4.4 µM with HIV-1 (setting [2]); 5 µM in the assay with HIV-1 (setting [3]). Besides, in the assay with HIV-1, the “TI50 (therapeutic index, IC50/EC50)” value is more than 2.
Turning to `CC(OC(=O)c1cc(NC(=S)c2ccccc2)ccc1Cl)C1CCCC1` (stereo not drawn) [Compound 12], the IC50 in assay [1] (Homo sapiens, CCRF-CEM) was more than 14 µM. For the same molecule, the EC50 in the assay with HIV-1 (setting [2]) was 0.23 µM and 0.27 µM; in the assay on HIV-1 (setting [3]) it was 0.28 µM. In addition, the “TI50 (therapeutic index, IC50/EC50)” value in the assay with HIV-1 is > 48 and > 60 and > 50.
For `CC(OC(=O)c1cc(NC(=S)c2ccccc2)ccc1Cl)C1CC1` (stereo not drawn) [Compound 13], the IC50 in assay [1] (Homo sapiens, CCRF-CEM) is more than 38 µM. Besides, in the assay with HIV-1 (setting [2]), the EC50 was 2.1 µM and 2.2 µM and 0.79 µM and 0.72 µM. The “TI50 (therapeutic index, IC50/EC50)” value with HIV-1 is > 18 and > 17 and > 48 and > 52.
With `Cc1occc1C(=O)Nc1ccc(Cl)c(C(=O)OC(C)C2CCCC2)c1` (stereo not drawn) [Compound 14], the IC50 in assay [1] (Homo sapiens, CCRF-CEM) is 7.7 µM; in assay [1] it was more than 14 µM. Besides, the EC50 in the assay with HIV-1 (setting [2]) is 0.84 µM and 1.1 µM and 0.77 µM and 2.3 µM and 1.7 µM. Also, the “TI50 (therapeutic index, IC50/EC50)” value in the assay on HIV-1 was 9 and > 13 and > 18 and > 6 and > 8.
Take `Cc1occc1C(=O)Nc1ccc(Cl)c(C(=O)OC(C)C2CC2)c1` (stereo not drawn) [Compound 15]: the IC50 in assay [1] (Homo sapiens, CCRF-CEM) is more than 21 µM. In addition, in the assay on HIV-1 (setting [2]), the EC50 is 1.4 µM and 2.5 µM and 1.1 µM. For the same molecule, the “TI50 (therapeutic index, IC50/EC50)” value in the assay with HIV-1 was > 14 and > 8 and > 19.
Take `Cc1occc1C(=S)Nc1ccc(Cl)c(C(=O)OC(C)C2CC2)c1` (stereo not drawn) [Compound 16]: the IC50 in assay [1] (Homo sapiens, CCRF-CEM) is more than 20 µM. For the same molecule, the “TI50 (therapeutic index, IC50/EC50)” value in the assay with HIV-1 was > 440 and > 240 and > 1600.
With `CC(OC(=O)c1cc(NC(=O)c2cccn2C)ccc1Cl)C1CC1` (stereo not drawn) [Compound 17], the IC50 in assay [1] (Homo sapiens, CCRF-CEM) is more than 54 µM. Also, in the assay on HIV-1 (setting [2]), the EC50 was 5.3 µM and 9.7 µM and 5 µM and 4.1 µM. The “TI50 (therapeutic index, IC50/EC50)” value in the assay on HIV-1 was > 10 and > 6 and > 11 and > 13.
